Structures can show the parent of a compound that is named as a salt. The source made the active and inactive calls. Cut-off read from the data, not from the text of the source, for most assays here: actives have a measured Kd and inactives only a lower limit.

In general, Kd refers to the equilibrium constant for the complex coming apart.

Test [1] addresses T1, ATP-dependent RNA helicase DHX30 (Homo sapiens, UniProt Q7L2E3).
T1 sequence (Q7L2E3 whole entry): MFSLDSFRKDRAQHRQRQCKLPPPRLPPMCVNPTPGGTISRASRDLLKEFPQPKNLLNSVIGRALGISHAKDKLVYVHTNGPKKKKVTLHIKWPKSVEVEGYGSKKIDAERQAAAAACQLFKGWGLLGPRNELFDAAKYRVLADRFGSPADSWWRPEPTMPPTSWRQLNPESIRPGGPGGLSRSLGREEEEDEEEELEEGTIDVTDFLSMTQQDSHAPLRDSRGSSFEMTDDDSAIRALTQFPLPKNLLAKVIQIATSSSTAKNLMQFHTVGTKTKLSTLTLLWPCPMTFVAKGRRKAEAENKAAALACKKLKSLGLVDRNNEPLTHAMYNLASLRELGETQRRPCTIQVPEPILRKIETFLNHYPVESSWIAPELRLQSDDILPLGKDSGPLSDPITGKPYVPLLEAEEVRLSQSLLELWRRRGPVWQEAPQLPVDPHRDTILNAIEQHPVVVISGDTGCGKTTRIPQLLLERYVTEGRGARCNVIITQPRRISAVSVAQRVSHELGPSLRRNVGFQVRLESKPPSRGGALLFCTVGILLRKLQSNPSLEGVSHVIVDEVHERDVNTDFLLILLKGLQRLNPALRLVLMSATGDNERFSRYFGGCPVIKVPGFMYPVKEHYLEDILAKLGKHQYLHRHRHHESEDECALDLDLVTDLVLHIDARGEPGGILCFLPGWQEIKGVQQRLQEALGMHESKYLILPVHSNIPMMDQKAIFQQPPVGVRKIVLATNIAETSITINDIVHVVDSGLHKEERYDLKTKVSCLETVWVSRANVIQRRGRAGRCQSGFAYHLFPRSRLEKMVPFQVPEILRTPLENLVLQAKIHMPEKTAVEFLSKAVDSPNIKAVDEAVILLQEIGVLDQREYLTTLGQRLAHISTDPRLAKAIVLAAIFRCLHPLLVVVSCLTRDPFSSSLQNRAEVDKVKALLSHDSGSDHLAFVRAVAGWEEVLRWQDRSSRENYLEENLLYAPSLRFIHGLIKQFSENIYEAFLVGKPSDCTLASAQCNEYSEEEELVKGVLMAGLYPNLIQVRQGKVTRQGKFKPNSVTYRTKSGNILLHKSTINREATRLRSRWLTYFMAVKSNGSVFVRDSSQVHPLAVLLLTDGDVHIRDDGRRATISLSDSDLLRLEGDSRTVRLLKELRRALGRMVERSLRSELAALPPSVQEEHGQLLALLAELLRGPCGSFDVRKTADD

Test [2] has as its target Serine/threonine-protein kinase N1 (Homo sapiens, UniProt Q16512).
The target in test [3] is Proto-oncogene tyrosine-protein kinase receptor Ret (Homo sapiens, UniProt P07949).
The target of another test is T2, ADP/ATP translocase 2 (Homo sapiens, UniProt P05141).
T2 sequence (P05141 whole entry): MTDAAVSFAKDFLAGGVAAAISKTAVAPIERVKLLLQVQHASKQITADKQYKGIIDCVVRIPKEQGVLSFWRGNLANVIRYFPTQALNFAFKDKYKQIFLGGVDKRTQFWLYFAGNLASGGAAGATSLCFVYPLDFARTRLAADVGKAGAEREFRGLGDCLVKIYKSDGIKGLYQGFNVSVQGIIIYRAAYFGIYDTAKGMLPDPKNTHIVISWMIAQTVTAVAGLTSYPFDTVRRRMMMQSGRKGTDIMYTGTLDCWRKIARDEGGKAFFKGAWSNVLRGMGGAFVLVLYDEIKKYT

Test [4] has as its target T3, Bifunctional phosphoribosylaminoimidazole carboxylase/phosphoribosylaminoimidazole succinocarboxamide synthetase (Homo sapiens, UniProt P22234).
T3 sequence (P22234 whole entry): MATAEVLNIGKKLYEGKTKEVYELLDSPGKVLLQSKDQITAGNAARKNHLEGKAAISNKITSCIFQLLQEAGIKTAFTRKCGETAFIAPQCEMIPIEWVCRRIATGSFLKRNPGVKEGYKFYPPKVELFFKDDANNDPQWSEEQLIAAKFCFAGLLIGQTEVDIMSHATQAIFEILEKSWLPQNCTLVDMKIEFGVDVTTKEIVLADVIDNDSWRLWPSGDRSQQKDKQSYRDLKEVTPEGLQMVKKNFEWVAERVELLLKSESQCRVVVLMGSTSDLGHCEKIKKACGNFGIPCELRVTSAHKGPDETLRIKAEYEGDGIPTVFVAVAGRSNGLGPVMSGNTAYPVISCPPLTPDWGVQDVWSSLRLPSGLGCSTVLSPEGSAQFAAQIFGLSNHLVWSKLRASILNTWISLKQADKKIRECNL

For test [5], the target named is Cyclin-dependent kinase 5 (Homo sapiens, UniProt Q00535).
Chain of Cyclin-dependent kinase 5 (Q00535 whole entry): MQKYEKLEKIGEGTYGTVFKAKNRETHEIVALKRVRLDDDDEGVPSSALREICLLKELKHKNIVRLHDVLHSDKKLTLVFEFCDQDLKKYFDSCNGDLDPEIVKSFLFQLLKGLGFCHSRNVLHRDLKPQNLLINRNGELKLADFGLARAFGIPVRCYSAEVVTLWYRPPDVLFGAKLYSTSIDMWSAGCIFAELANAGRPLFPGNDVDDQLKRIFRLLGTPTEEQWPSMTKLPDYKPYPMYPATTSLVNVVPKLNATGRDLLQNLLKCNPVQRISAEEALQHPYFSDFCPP
In test [6] the target is Tyrosine-protein kinase Fer (Homo sapiens, UniProt P16591).
Chain of Tyrosine-protein kinase Fer (P16591 whole entry): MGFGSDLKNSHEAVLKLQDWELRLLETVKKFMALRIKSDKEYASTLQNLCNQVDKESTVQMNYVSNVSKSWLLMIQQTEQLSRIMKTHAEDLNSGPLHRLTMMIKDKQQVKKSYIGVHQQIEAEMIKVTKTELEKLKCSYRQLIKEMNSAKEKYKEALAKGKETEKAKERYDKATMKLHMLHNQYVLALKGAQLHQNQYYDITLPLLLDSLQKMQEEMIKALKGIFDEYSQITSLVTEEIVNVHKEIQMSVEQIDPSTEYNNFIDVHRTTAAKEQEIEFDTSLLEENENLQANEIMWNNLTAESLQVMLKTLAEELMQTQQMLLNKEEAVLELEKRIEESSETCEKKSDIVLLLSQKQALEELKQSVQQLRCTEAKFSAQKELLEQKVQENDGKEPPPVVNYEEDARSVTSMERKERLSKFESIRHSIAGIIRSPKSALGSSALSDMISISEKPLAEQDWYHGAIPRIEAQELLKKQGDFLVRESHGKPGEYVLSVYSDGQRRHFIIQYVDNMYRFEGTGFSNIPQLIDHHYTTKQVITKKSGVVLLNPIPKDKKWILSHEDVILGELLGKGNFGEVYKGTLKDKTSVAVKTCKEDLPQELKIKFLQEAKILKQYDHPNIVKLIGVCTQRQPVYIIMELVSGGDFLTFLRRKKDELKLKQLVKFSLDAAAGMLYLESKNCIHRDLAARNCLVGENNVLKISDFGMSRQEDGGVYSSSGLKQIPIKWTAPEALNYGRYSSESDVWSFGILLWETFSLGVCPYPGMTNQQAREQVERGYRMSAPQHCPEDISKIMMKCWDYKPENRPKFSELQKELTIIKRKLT
Another test deals with Insulin receptor (Homo sapiens, UniProt P06213).
Test [7] deals with Ribosomal protein S6 kinase alpha-4 (Homo sapiens, UniProt O75676).
Chain of Ribosomal protein S6 kinase alpha-4 (O75676 whole entry): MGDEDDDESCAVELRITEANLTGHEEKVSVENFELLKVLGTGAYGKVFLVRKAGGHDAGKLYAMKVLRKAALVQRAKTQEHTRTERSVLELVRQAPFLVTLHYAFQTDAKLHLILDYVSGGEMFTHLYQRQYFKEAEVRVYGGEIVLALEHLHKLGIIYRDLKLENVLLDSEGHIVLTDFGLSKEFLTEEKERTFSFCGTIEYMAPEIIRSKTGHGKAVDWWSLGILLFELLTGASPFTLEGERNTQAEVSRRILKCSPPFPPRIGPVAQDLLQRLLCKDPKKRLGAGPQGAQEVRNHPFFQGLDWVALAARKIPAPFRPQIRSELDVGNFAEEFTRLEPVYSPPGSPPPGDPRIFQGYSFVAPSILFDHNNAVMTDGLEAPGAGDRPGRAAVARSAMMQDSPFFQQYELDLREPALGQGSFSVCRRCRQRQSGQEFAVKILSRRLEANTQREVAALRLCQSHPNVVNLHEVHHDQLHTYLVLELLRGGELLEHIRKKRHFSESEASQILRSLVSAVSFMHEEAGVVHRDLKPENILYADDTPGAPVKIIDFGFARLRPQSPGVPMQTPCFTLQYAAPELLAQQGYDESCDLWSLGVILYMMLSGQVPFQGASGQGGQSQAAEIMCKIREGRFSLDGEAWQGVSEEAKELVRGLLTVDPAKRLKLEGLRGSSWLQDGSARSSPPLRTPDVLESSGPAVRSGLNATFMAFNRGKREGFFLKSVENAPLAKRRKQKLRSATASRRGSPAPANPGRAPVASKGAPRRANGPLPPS
The target in test [8] is T4, Ferrochelatase, mitochondrial (Homo sapiens, UniProt P22830).
T4 sequence (P22830 whole entry): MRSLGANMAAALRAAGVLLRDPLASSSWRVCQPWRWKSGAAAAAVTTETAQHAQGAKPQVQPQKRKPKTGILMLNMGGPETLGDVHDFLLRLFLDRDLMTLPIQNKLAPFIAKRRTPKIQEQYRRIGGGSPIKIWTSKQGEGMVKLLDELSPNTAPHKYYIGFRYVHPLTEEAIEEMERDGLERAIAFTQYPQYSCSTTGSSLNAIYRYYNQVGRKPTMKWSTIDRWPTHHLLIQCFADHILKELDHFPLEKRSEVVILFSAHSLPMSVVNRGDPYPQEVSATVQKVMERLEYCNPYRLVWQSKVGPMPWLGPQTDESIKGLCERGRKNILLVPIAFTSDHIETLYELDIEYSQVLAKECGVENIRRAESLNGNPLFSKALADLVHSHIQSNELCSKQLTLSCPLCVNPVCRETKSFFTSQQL

In test [9] the target is Bone morphogenetic protein receptor type-1B (Homo sapiens, UniProt O00238).
Chain of Bone morphogenetic protein receptor type-1B (O00238 whole entry, the tested form may be a part): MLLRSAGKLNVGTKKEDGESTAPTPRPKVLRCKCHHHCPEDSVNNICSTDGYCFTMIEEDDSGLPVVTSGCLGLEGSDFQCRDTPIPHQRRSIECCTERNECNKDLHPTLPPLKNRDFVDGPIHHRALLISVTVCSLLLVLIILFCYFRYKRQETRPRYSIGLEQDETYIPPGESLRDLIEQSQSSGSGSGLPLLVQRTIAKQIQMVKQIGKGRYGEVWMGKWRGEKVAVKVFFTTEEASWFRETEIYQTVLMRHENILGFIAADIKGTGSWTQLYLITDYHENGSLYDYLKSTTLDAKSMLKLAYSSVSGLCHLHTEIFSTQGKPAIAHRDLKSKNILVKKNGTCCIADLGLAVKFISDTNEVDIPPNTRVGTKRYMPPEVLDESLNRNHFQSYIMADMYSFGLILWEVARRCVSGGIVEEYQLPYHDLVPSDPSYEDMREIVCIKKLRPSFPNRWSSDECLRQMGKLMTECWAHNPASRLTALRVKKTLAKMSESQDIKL
Test [10] deals with Epithelial discoidin domain-containing receptor 1 (Homo sapiens, UniProt Q08345).
Chain of Epithelial discoidin domain-containing receptor 1 (Q08345 whole entry, the tested form may be a part): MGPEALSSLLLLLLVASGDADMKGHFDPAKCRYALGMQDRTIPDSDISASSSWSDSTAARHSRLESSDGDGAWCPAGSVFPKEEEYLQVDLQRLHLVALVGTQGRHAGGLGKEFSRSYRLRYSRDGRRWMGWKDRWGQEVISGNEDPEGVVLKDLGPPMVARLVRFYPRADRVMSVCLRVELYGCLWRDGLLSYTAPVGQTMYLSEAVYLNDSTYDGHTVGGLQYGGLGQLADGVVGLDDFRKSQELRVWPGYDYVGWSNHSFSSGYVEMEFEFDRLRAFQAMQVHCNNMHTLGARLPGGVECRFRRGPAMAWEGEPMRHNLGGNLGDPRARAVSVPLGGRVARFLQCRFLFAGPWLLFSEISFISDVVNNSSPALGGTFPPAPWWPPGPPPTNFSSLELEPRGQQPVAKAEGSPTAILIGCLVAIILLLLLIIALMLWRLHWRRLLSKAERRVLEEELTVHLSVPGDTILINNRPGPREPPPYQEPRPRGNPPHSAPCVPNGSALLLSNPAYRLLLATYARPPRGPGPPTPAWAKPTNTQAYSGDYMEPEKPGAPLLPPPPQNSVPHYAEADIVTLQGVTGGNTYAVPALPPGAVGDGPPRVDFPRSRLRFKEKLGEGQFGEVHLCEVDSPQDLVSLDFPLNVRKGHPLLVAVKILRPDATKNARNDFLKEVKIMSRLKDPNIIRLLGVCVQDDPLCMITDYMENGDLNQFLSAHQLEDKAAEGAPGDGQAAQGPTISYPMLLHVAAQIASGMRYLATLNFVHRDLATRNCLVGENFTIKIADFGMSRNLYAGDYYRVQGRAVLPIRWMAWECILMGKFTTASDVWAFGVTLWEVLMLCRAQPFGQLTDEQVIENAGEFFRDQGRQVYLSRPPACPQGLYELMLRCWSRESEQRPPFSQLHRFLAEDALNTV
Note: in the data inactive means no Kd found up to 30 µM.

Chain of Serine/threonine-protein kinase N1 (Q16512 whole entry): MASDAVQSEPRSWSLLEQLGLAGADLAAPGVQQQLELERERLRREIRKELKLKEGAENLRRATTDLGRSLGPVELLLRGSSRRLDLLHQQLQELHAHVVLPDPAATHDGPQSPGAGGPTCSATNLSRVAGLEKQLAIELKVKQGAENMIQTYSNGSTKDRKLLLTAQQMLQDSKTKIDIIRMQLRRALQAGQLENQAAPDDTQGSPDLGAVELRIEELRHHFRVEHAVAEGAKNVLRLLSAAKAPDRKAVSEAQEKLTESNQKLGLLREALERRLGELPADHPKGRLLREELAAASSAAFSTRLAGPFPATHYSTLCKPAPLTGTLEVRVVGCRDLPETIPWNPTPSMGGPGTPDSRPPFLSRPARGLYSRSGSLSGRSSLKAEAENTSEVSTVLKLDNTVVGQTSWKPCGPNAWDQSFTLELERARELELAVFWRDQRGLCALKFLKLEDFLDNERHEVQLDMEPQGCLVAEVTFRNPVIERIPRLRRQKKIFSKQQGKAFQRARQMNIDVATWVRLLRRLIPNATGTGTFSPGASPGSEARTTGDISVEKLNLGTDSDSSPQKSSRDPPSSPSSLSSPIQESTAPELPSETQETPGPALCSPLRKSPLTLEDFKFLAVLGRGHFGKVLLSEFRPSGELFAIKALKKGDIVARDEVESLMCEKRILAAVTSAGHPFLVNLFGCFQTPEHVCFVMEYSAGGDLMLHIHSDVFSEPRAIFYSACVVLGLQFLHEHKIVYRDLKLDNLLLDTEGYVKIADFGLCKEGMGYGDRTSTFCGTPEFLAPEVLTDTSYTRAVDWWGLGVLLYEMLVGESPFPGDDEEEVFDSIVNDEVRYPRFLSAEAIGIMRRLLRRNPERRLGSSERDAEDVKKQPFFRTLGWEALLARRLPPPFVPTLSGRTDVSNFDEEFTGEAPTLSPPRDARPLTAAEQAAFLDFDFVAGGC

`C=CC(=O)N1CCC[C@H](n2c(=O)n(-c3ccc(Oc4ccccc4)cc3)c3c(N)ncnc32)C1`: the Kd (in test [1]; in test [2]; in test [3]; at ADP/ATP translocase 2; in [4]; in test [5]) was > 30 µM (inactive) each time. In addition, the Kd (in test [6]; on Insulin receptor; in [7]; in [8]; in [9]; in test [10]) was > 30 µM (inactive) throughout.
Take `Cc1csc(-c2nnc(Nc3ccc(Oc4ncccc4-c4ccnc(N)n4)cc3)c3ccccc23)c1` [AMG-900]: the Kd was > 30 µM (inactive) in test [1]; > 30 µM (inactive) in test [2]; 1.14 µM (active) in [3]; > 30 µM (inactive) on ADP/ATP translocase 2; > 30 µM (inactive) in test [4]; > 30 µM (inactive) in test [5]. Further, the Kd in test [6] is > 30 µM (inactive); at Insulin receptor it was > 30 µM (inactive); in test [7], 2.07 µM (active); in test [8], > 30 µM (inactive); in test [9] it was > 30 µM (inactive); in [10], 0.11 µM (active).
In the case of `NC(=O)Nc1cc(-c2cccc(F)c2)sc1C(=O)N[C@H]1CCCNC1` [AZD-7762], the Kd in [1] was > 30 µM (inactive); in test [2], 2.16 µM (active); in test [3] it was 0.023 µM (active); on ADP/ATP translocase 2, > 30 µM (inactive); in test [4] it was > 30 µM (inactive); in test [5], > 30 µM (inactive). Besides, the Kd on Insulin receptor was > 30 µM (inactive); in [7], 0.879 µM (active); in test [8] it was > 30 µM (inactive); in [9], > 30 µM (inactive); in [10] it was > 30 µM (inactive).
Turning to `Cn1cnc2c(F)c(Nc3ccc(Br)cc3F)c(C(=O)NOCCO)cc21` [BINIMETINIB], the Kd (in [1]; in [2]; in [3]; on ADP/ATP translocase 2; in test [4]; in test [5]) was > 30 µM (inactive) throughout. For the same compound, the Kd (in test [6]; at Insulin receptor; in test [7]; in test [8]; in test [9]; in [10]) was > 30 µM (inactive) in each case.
With `CCS(=O)(=O)N1CCN(c2ccc(Nc3ncc(C(N)=O)c(NC4CC4)n3)cc2)CC1` [Cerdulatinib Hydrochloride], the Kd in test [1] is > 30 µM (inactive); in [2] it was > 30 µM (inactive); in [3], 1.23 µM (active); on ADP/ATP translocase 2 it was > 30 µM (inactive); in test [4], > 30 µM (inactive); in test [5], > 30 µM (inactive). Moreover, the Kd (in test [6]; on Insulin receptor; in test [7]; in test [8]; in test [9]; in test [10]) was > 30 µM (inactive) each time.
With `O=C(Nc1nc2cccc(-c3ccc(CN4CCS(=O)(=O)CC4)cc3)n2n1)C1CC1` [FILGOTINIB], the Kd (in test [1]; in test [2]; in test [3]; at ADP/ATP translocase 2; in [4]; in [5]) was > 30 µM (inactive) throughout. Besides, the Kd (in [6]; on Insulin receptor; in test [7]; in test [8]; in test [9]; in test [10]) was > 30 µM (inactive) throughout.
For `CCOc1cc2ncc(C#N)c(Nc3ccc(F)c(Cl)c3)c2cc1NC(=O)/C=C/CN(C)C` [PELITINIB], the Kd (in test [1]; in test [2]; in test [3]; at ADP/ATP translocase 2; in test [4]; in test [5]) was > 30 µM (inactive) throughout. The Kd is > 30 µM (inactive) in test [6]; > 30 µM (inactive) on Insulin receptor; > 30 µM (inactive) in test [7]; 10.5 µM (active) in test [8]; > 30 µM (inactive) in test [9]; > 30 µM (inactive) in test [10].
Consider `Cc1nc(Nc2n[nH]c3c2CN(C(=O)N[C@H](CN(C)C)c2ccccc2)C3(C)C)c2sccc2n1` [PF-03758309], for which the Kd in test [1] is > 30 µM (inactive); in test [3], 0.728 µM (active); on ADP/ATP translocase 2, > 30 µM (inactive); in [4] it was > 30 µM (inactive); in [5] it was > 30 µM (inactive); in [6], 0.802 µM (active). For the same compound, the Kd (at Insulin receptor; in test [8]; in test [9]; in [10]) was > 30 µM (inactive) in each case.
In the case of `O=c1[nH]ccc2cc(OC3CCNCC3)ccc12` [SAR-407899 FREE BASE], the Kd is > 30 µM (inactive) in test [1]; 0.019 µM (active) in test [2]; > 30 µM (inactive) in test [3]; > 30 µM (inactive) on ADP/ATP translocase 2; > 30 µM (inactive) in test [4]; > 30 µM (inactive) in test [5]. The Kd (in test [6]; at Insulin receptor; in [7]; in test [8]; in test [9]; in [10]) was > 30 µM (inactive) each time.

The record behind these values is ChEMBL document CHEMBL3991601, “The target landscape of clinical kinase drugs” (Science, 2017).
